Data on seven compounds can be found in ChEMBL document CHEMBL3091362, “Molecular basis for the long duration of action and kinetic selectivity of tiotropium for the muscarinic M3 receptor” (J Med Chem, 2013).

Molecules are shown by their SMILES.

Assay [1] has as its target T1, Muscarinic acetylcholine receptor M3 (Homo sapiens, UniProt P20309). Briefly: biochemical. The assay is classed as cell-based, HEK-293T.
Target sequence in this assay (P20309 whole entry): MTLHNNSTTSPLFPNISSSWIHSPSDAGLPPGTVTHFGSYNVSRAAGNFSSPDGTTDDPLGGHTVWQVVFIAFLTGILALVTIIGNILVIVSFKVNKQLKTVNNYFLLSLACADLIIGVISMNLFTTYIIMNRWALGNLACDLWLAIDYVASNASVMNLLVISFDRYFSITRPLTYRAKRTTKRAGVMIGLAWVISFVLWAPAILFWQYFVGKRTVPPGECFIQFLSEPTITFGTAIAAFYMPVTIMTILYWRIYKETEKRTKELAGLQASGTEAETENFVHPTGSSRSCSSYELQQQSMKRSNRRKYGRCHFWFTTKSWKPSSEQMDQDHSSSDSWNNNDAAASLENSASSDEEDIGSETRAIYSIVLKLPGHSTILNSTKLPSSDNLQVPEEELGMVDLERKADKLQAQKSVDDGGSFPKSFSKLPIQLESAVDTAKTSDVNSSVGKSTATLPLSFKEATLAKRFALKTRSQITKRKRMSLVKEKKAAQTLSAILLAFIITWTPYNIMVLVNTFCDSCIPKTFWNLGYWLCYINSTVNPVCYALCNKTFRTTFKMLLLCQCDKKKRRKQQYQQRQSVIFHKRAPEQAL
Description: Binding affinity to wild type human M3 receptor expressed in HEK293T cells up to 24 hrs by radioligand displacement assay
In assay [2] the test system is Muscarinic acetylcholine receptor M3 (Homo sapiens), P20309 [F225A]. Particulars: HEK-293T.
Assay [3] deals with Muscarinic acetylcholine receptor M3 (Homo sapiens), P20309 [E220A]. The following applies: HEK-293T.
The subject of assay [4] is Muscarinic acetylcholine receptor M3 (Homo sapiens), P20309 [Q224A]. The following applies: HEK-293T.
For assay [5], the system named is Muscarinic acetylcholine receptor M3 (Homo sapiens), P20309 [F222A]. Particulars: HEK-293T.
For assay [6], the system named is Muscarinic acetylcholine receptor M3 (Homo sapiens), P20309 [E228A]. Particulars: HEK-293T.
Assay [7] relates to Muscarinic acetylcholine receptor M3 (Homo sapiens), P20309 [R133A]. Particulars: HEK-293T.
Assay [8] deals with Muscarinic acetylcholine receptor M3 (Homo sapiens), P20309 [K213A]. The following applies: HEK-293T.
Assay [9] has as its system Muscarinic acetylcholine receptor M3 (Homo sapiens), P20309 [K523A]. Particulars: HEK-293T.
The test system of assay [10] is Muscarinic acetylcholine receptor M3 (Homo sapiens), P20309 [D518A]. The following applies: HEK-293T.
For assay [11], the target named is T1, Muscarinic acetylcholine receptor M3. The following applies: HEK-293T.
Target sequence in this assay (P20309 whole entry, looked up): as the sequence (P20309 whole entry) above
Description: Binding affinity to wild type human M3 receptor expressed in HEK293T cells assessed as half life by radioligand displacement assay

Muscarinic acetylcholine receptor M3 (Homo sapiens), P20309 [K523A], sequence (P20309 whole entry K523A): as the sequence (P20309 whole entry) above, with K523A counted along it
Muscarinic acetylcholine receptor M3 (Homo sapiens), P20309 [R133A], sequence (P20309 whole entry R133A): as the sequence (P20309 whole entry) above, with R133A counted along it
Muscarinic acetylcholine receptor M3 (Homo sapiens), P20309 [F225A], sequence (P20309 whole entry F225A): as the sequence (P20309 whole entry) above, with F225A counted along it
Muscarinic acetylcholine receptor M3 (Homo sapiens), P20309 [E220A], sequence (P20309 whole entry E220A): as the sequence (P20309 whole entry) above, with E220A counted along it
Muscarinic acetylcholine receptor M3 (Homo sapiens), P20309 [K213A], sequence (P20309 whole entry K213A): as the sequence (P20309 whole entry) above, with K213A counted along it
Muscarinic acetylcholine receptor M3 (Homo sapiens), P20309 [F222A], sequence (P20309 whole entry F222A): as the sequence (P20309 whole entry) above, with F222A counted along it
Muscarinic acetylcholine receptor M3 (Homo sapiens), P20309 [Q224A], sequence (P20309 whole entry Q224A): as the sequence (P20309 whole entry) above, with Q224A counted along it
Muscarinic acetylcholine receptor M3 (Homo sapiens), P20309 [D518A], sequence (P20309 whole entry D518A): as the sequence (P20309 whole entry) above, with D518A counted along it
Muscarinic acetylcholine receptor M3 (Homo sapiens), P20309 [E228A], sequence (P20309 whole entry E228A): as the sequence (P20309 whole entry) above, with E228A counted along it

Consider `C[N+]1(C)[C@@H]2C[C@H](OC(=O)C(O)c3cccs3)C[C@H]1[C@@H]1O[C@@H]12` (stereo partly specified), for which, in assay [1], the Ki was 5.01 nM.
Turning to `C[N+]1(C)[C@@H]2C[C@@H](OC(=O)C(O)(c3cccs3)c3cccs3)C[C@H]1[C@@H]1O[C@@H]12`, the T1/2 in [2] was determined as 13.8 h; in assay [3] it was 31.7 h; in [4], 12.4 h; in [5], 23 h; in assay [6], 20.1 h; in assay [7], 25.4 h. The T1/2 in assay [8] worked out at 20.4 h; in assay [9] it was 12.5 h; in [10] it was 22.6 h; in [11] it was 24.5 h.
`C[N+]1(C)[C@@H]2C[C@H](OC(=O)C(O)c3ccccc3)C[C@H]1[C@@H]1O[C@@H]12` (stereo partly specified): the affinity in assay [1] corresponds to a Ki of 2 nM.
Still for that read-out and setting: the result for `COC(C(=O)O[C@H]1C[C@@H]2[C@H]3O[C@H]3[C@H](C1)[N+]2(C)C)(c1cccs1)c1cccs1` reads 1.58 nM; that for `C[N+]1(C)[C@@H]2C[C@H](OC(=O)C(O)(c3ccccc3)c3ccccc3)C[C@H]1[C@@H]1O[C@@H]12`, 0.0631 nM.
As to `CC(C(=O)O[C@H]1C[C@@H]2[C@H]3O[C@H]3[C@H](C1)[N+]2(C)C)(c1cccs1)c1cccs1`, the Ki in [1] is 0.0501 nM.
For the compound `C[N+]1(C)[C@@H]2C[C@H](OC(=O)C(CO)(c3cccs3)c3cccs3)C[C@H]1[C@@H]1O[C@@H]12`, the Ki in assay [1] was 0.316 nM.
